Laboratory results reported in patent US8030286B2, “Methods and means for increasing resistance to cell damage” (University of Medicine and Dentistry of New Jersey, priority 2004, dated 2011).

Assays:
eEF2 kinase−/− MEFs = test: MTT viability assay, eEF2 kinase knockout MEFs; type: cell-based, mouse
Procedure: (§1) MTT Survival Assay: MEFs used in this study (2×10^3 cells per well of a 96 well plate) are incubated in the presence of indicated drugs for 24 hours. Cell viability is determined using the standard MTT assay^30. Each experiment is repeated three times for each drug and each cell line using three parallel wells for each drug concentration. For colony formation assay cells are treated with indicated drugs for 24 hours and replated with complete DMEM at low density (500 cells per well in 6-well plate) in duplicate. After 10 days colonies are stained with 10 mg/ml methylene blue (Sigma Inc.) in 50% methanol.
(§2) The possible correlation between activation of eEF2 kinase and the resultant phosphorylation of eEF2 and Ca^2+ ionophore-induced cell death is addressed by comparing the viability of wild type and eEF2 kinase knockout mouse embryonic fibroblasts (MEFs) after incubation of each with different concentrations of ionomycin.

eEF2 kinase+/+ MEFs = test: MTT viability assay, wild type MEFs; type: cell-based, mouse
Procedure: as §1, §2

eEF2K-deficient cells = test: Cell death in phase-contrast images, eEF2K-deficient MEFs; type: cell-based, mouse; settings: 1.6 μM doxorubicin, 24 hours
[1] = system: wild type mouse embryonic fibroblasts (MEFs); test: Cell death in phase-contrast images, wild type MEFs; type: cell-based; settings: 1.6 μM doxorubicin, 24 hours

C[C@H](CCC(=O)O)C[C@H](C)C[C@H](C)C(=O)/C=C(\O)[C@H](C)C[C@H](C)C/C=C/[C@@H](C)[C@@H](O)[C@@H](C)[C@@H](O)C[C@@H]1CC[C@@](C)([C@H]2CC[C@@](C)([C@@H](C)O)O2)O1 [ionomycin]
effect on the viability (eEF2 kinase−/− MEFs; same concentrations of ionomycin (1 to 10 μM), 24 h): virtually no effect | cells die (eEF2 kinase+/+ MEFs; 10 μM ionomycin, incubation for 24 h): approximately 70% | cell viability (eEF2 kinase+/+ MEFs; increasing concentrations of ionomycin from 1 to 10 μM, 24 h): progressive decrease of cell viability

COc1cccc2c1C(=O)c1c(O)c3c(c(O)c1C2=O)C[C@@](O)(C(=O)CO)C[C@@H]3O[C@H]1C[C@H](N)[C@H](O)[C@H](C)O1 [doxorubicin]
cell death (eEF2K-deficient cells): much less cell death | cell death [1]: significant cell death

Cc1ccc(C(=O)Cn2c3c(sc2=N)CCCC3)cc1 [PFTα, pifithrin α]
effect of p53 inactivation on drug sensitivity (DOX) (eEF2 kinase−/− MEFs; DOX 24 h, MTT assay): only slightly affected | effect of p53 inactivation on drug sensitivity (DOX) (eEF2 kinase+/+ MEFs; DOX 24 h, MTT assay): strongly decreasing sensitivity
